Experiments:
Assay type in all cases: cell-based
[1] = molecular target: Sodium-dependent noradrenaline transporter (Homo sapiens, UniProt P23975); assay: Inhibition of human NET expressed in HEK293 cells assessed as reduction in [3H]-NE uptake by micro beta scintillation counting analysis
[2] = molecular target: Sodium-dependent serotonin transporter (Homo sapiens, UniProt P31645); assay: Inhibition of human SERT expressed in HEK293 cells assessed as reduction in [3H]5-HT uptake by micro beta scintillation counting analysis
[3] = molecular target: Sodium-dependent dopamine transporter (Homo sapiens, UniProt Q01959); assay: Inhibition of human DAT expressed in HEK293 cells assessed as reduction in [3H]-DA uptake by micro beta scintillation counting analysis
Sequence of Sodium-dependent dopamine transporter (Q01959 whole entry): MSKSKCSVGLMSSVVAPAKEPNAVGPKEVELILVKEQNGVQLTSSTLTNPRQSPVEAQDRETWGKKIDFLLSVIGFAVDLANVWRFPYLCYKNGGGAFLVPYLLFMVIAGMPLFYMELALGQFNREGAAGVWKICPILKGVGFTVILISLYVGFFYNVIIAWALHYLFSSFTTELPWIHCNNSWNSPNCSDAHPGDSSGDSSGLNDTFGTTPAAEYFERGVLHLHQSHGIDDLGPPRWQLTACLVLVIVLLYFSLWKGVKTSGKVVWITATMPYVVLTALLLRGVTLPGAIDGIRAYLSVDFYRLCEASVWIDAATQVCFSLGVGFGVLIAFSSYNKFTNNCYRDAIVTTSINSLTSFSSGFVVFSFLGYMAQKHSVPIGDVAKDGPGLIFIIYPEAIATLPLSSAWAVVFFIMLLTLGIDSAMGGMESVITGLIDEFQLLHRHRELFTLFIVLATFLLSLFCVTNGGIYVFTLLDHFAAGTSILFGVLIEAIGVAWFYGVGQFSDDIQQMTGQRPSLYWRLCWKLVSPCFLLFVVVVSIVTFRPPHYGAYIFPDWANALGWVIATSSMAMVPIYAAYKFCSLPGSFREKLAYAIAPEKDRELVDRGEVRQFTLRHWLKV

Sequence of Sodium-dependent serotonin transporter (P31645 whole entry): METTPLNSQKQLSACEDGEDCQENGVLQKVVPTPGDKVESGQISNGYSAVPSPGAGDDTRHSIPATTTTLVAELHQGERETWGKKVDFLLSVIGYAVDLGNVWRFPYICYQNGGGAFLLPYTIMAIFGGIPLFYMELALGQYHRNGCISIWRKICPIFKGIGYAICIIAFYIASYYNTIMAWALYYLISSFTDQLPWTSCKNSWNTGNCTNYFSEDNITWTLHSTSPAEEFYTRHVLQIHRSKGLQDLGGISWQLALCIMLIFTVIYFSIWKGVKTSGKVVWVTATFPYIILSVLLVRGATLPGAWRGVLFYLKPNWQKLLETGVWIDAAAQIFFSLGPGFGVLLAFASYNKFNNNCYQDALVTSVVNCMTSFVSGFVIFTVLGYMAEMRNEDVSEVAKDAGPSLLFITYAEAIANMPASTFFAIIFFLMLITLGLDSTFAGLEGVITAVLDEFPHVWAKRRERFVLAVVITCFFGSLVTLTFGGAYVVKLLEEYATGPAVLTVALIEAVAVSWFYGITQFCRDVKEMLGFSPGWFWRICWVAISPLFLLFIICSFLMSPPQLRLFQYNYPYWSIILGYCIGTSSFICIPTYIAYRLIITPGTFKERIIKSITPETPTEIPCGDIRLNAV
Sequence of Sodium-dependent noradrenaline transporter (P23975 whole entry): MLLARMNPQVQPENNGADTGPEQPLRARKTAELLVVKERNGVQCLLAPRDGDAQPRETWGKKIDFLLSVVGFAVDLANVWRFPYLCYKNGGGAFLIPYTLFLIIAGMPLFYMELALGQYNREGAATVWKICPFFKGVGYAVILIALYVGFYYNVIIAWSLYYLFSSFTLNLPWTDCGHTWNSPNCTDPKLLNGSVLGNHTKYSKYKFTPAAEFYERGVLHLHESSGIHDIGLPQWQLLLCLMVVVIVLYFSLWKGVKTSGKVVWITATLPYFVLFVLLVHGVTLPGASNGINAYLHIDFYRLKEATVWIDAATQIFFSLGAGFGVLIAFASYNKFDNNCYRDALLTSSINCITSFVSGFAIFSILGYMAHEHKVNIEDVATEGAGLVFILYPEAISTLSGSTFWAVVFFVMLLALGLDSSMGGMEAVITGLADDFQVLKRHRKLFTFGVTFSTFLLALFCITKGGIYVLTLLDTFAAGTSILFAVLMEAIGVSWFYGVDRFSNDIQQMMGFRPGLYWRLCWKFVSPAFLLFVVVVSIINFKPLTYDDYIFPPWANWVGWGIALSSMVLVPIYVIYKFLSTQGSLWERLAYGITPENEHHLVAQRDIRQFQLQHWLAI

| SMILES | IC50 [1] | IC50 [2] | IC50 [3] |
| --- | --- | --- | --- |
| O=C(NCCCN1CCN(c2cccc(Cl)c2Cl)CC1)c1cc2ccccc2s1 | 3.66 µM | 0.4 µM | – |
| O=C(NCCCN1CCN(c2cccc(Cl)c2Cl)CC1)c1cc2ccccc2o1 | > 10 µM | > 10 µM | – |
| COc1ccccc1N1CCN(CCCNC(=O)c2ccc3ccccc3n2)CC1 | > 10 µM | > 10 µM | – |
| O=C(NCCCN1CCN(c2ncccn2)CC1)c1cc(Cl)cc(Cl)c1 | > 10 µM | > 10 µM | > 10 µM |
| O=C(NCCCN1CCN(c2ncccn2)CC1)c1ccc2ccccc2c1 | > 10 µM | > 10 µM | > 10 µM |
| O=C(NCCCN1CCN(c2cccc(Cl)c2Cl)CC1)c1cc(Cl)cc(Cl)c1 | > 10 µM | > 10 µM | > 10 µM |
| O=C(NCCCN1CCN(c2ccccn2)CC1)c1cc(Cl)cc(Cl)c1 | > 10 µM | > 10 µM | > 10 µM |
| O=C(NCCCN1CCN(c2ncccn2)CC1)c1cccc2ccccc12 | > 10 µM | > 10 µM | > 10 µM |
| O=C(NCCCN1CCN(c2ccccn2)CC1)c1cccc2ccccc12 | > 10 µM | > 10 µM | > 10 µM |
| O=C(NCCCN1CCN(c2ncccn2)CC1)c1ccc2ccccc2n1 | > 10 µM | > 10 µM | > 10 µM |
| O=C(NCCCN1CCN(c2ccccc2)CC1)c1ccc2ccccc2n1 | > 10 µM | > 10 µM | – |

Second part, led by results:

| IC50 [1] | IC50 [2] | SMILES | IC50 [3] |
| --- | --- | --- | --- |
| > 10 µM | 0.741 µM | O=C(NCCCN1CCN(c2ccc(C(F)(F)F)cc2)CC1)c1cc2ccccc2o1 | – |
| > 10 µM | 9.64 µM | O=C(NCCCN1CCN(c2ccccn2)CC1)c1ccc2ccccc2c1 | > 10 µM |
| > 10 µM | 0.23 µM | Cc1ccc(N2CCN(CCCNC(=O)c3ccc4ccccc4n3)CC2)cc1 | – |
| 2.69 µM | 0.46 µM | Cc1ccc(N2CCN(CCCNC(=O)c3ccc4ccccc4c3)CC2)cc1 | – |
| > 10 µM | 0.273 µM | O=C(NCCCN1CCN(c2ccc(Cl)c(Cl)c2)CC1)c1ccc2ccccc2n1 | – |
| > 10 µM | 1.32 µM | O=C(NCCCN1CCN(c2ccc(Cl)cc2)CC1)c1ccc2ccccc2n1 | – |
| 6.07 µM | 0.23 µM | COc1ccc(N2CCN(CCCNC(=O)c3ccc4ccccc4n3)CC2)cc1 | – |
| > 10 µM | 0.28 µM | O=C(NCCCN1CCN(c2ccc(Cl)cc2)CC1)c1ccc2ccccc2c1 | – |
| > 10 µM | 6.94 µM | O=C(NCCCN1CCN(c2ccccn2)CC1)c1ccc2ccccc2n1 | > 10 µM |
| > 10 µM | 6.85 µM | O=C(NCCCN1CCN(c2ccc(Cl)cc2Cl)CC1)c1ccc2ccccc2n1 | – |
| > 10 µM | 4.27 µM | O=C(NCCCN1CCN(c2cccc(Cl)c2Cl)CC1)c1cccc2ccccc12 | > 10 µM |
| 0.26 µM | 0.74 µM | O=C(NCCCN1CCN(c2cccc(Cl)c2Cl)CC1)c1ccc2ccccc2c1 | > 10 µM |
| 1.34 µM | 0.55 µM | O=C(NCCCN1CCN(c2ccc(Cl)cc2)CC1)c1cc2ccccc2s1 | – |
| 2.55 µM | 1.17 µM | O=C(NCCCN1CCN(c2cccc(Cl)c2Cl)CC1)c1ccc2ccccc2n1 | > 10 µM |
| 3.15 µM | 1.01 µM | O=C(NCCCN1CCN(c2cccc(Cl)c2Cl)CC1)c1ccc(-c2ccccc2)cc1 | – |
| 4.96 µM | 4.46 µM | COc1ccccc1N1CCN(CCCNC(=O)c2ccc(-c3ccccc3)cc2)CC1 | – |

Source: ChEMBL document CHEMBL4229444, “Design, synthesis and docking study of 4-arylpiperazine carboxamides as monoamine neurotransmitters reuptake inhibitors” (Bioorg Med Chem, 2018)
